Assay results from US20210024499A1, “OXIDIZED BIS(3-INDOLYL)METHANES AND USES THEREOF” (Sanford Burnam Prebys Medical Discovery Institute, priority 2018, published 2021).

What was measured:
HCT116 cancer cells [1] = assay: Apoptosis assay, Annexin V-FITC/propidium iodide flow cytometry; format: cell-based; conditions: Homo sapiens, HCT-116, 6 hours, Annexin V-FITC/PI flow cytometry (Table 4)
Method: HCT116 cancer cells plated at a density of 1×10^6 per well on six-well plates were treated with different concentration of test compounds for 6 hours, and then the suspension and the adherent cells were collected, stained with Annexin V-FITC for 15 minutes and with propodium iodide for 5 minutes, and analyzed immediately by cytoFLEX Flow Cytometry System (Beckman-Coulter, Miami, Fla., USA) using FITC and PC5.5 (Table 4).

HCT116 cancer cells [2] = assay: Cell viability (MTT) assay, HCT116; format: cell-based; conditions: Homo sapiens, HCT-116; inhibiting the growth of HCT116 cancer cells, cell viability assay (Table 5)
Method: (§1) Cell viability was analyzed by using a colorimetric 3-(4,5-dimethylthiazol-[…]2-yl)-2,5-diphenyletetrazolium Bromide (MTT) assay that determines mitochondrial dehydrogenase activities in the living cells with a colorimetric method. Cells treated with test compounds were incubated with MTT and their effect on the viability of the cells was assayed by the ability of treated cells to reduce the yellow tetrazolium dye MTT to its insoluble formazan, which has a purple color. […]

pBind-RXRa-LBD and Nur77 = assay: Mammalian one hybrid assay, Gal4-RXRa-LBD with Nur77; format: cell-based; conditions: cotransfection of pBind-RXRa-LBD and Nur77, Dual-Luciferase (FIG. 10)
Method: (§2) HEK293T cells were co-transfected with pG5 Luciferase reporter together with the plasmid encoding RXRa-LBD fused with the Gal4 DNA-binding domain and other expression plasmids. After transfection, cells were treated with DMSO or a test compound, and assayed by using the Dual-Luciferase Reporter Assay System (Promega). Transfection efficiency was normalized to Renilla luciferase activity.
(§3) To exclude the possibility that Compound 1 acted on RXRa, Glu453 and Glu456 in the RXRa activation function 2 (AF2) region were substituted with Ala and the resulting mutant, RXRa-LBD/E453,6A, was used.

[3] = tested on: Nur77 and pBind-RXRa-LBD-E453,6A; assay: Mammalian one hybrid assay, RXRa-LBD/E453,6A mutant with Nur77; format: cell-based; conditions: cells transfected with Nur77 and pBind-RXRa-LBD-E453,6A
Method: as §2, §3

MDA-MB-231 cancer cells = assay: Cell viability (MTT) assay, MDA-MB-231; format: cell-based; conditions: Homo sapiens; inhibiting the growth of MDA-MB-231 cancer cells, cell viability assay (Table 6)
Method: as §1

MDA-MB-231 cells = assay: PARP cleavage assay (Western blotting), MDA-MB-231; format: cell-based; conditions: 6 hours
Excerpt: (§4) Compound 1a had no effect under the same conditions (FIG. 1A). […] Compound 1a, 28a, 47a, 48a, 73a, 39a, 70a, 103a, 89a and 88a had no effect under the same conditions (FIG. 3B-C).

[4] = tested on: mTOR markers p-S6 and p-4EBP1; assay: mTOR inhibition: expression of mTOR markers; format: cell-based; conditions: MDA-MB-231 cells, 1 μM, 6 hours
Nur77 [5] = molecular target: T1, Nur77 (Homo sapiens, UniProt P22736); assay: Cellular fractionation and immunostaining: mitochondrial targeting of Nur77; format: cell-based; conditions: mitochondria fractionation, 1μM
T1 construct: expressed in transfected cells
T1 sequence (P22736 whole entry): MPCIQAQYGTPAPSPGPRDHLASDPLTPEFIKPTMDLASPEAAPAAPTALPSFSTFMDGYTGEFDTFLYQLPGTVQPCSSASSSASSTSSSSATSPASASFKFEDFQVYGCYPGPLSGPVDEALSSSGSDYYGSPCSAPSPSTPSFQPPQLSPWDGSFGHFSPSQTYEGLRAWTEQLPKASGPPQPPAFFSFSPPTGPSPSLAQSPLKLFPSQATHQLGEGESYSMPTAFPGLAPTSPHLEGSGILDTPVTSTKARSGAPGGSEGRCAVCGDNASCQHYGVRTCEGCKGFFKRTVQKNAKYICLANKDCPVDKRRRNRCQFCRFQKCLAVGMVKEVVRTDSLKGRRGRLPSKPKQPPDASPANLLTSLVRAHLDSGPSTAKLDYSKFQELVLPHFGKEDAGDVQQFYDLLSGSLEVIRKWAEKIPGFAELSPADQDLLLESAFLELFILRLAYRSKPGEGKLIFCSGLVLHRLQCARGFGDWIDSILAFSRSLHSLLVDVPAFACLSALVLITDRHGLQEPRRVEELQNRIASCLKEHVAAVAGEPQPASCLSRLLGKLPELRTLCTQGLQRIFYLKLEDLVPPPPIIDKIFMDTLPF
Method: (§5) For cellular fractionation, cells were lysed in cold buffer A (10 mM HEPES-KOH (pH 7.9), 1.5 mM MgCl2, 10 mM KCl, 0.5 mM dithiothreitol) with a cocktail of proteinase inhibitors on ice for 10 min as described. Cytoplasmic fraction was collected by centrifuging at 6000 rpm for 30 seconds. Pellets containing nuclei were resuspended in cold high-salt buffer C (20 mM HEPES-KOH (pH 7.9), 25% glycerol, 420 mM NaCl, 1.5 mM MgCl2, 0.2 mM EDTA, 0.5 mM dithiothreitol) with a cocktail of proteinase inhibitors on ice for 30 minutes.

Nur77 [6] = assay: as above; format: cell-based; conditions: immunostaining
Method: as §5

PyMT mammary tumor = assay: MMTV-PyMT mice breast cancer model; format: in vivo
Method: Female MMTV-PyMT mice of 12 weeks old were randomly divided into two groups (n=7 each), treated with a daily oral dose of test compound for 18 days. Standard histopathological analysis of tumor tissue was performed (see Example A-19). Test compounds were dissolved in DMSO and diluted with normal saline containing 5.0% (V/V) Tween-80 to a final concentration 0.5 mg/ml. Normal saline with DMSO and 5.0% Tween-80 was employed as the vehicle control.
4 μm thick sections were deparaffinized and rehydrated using xylene and a graded series of ethanol (100, 95, 85, 75, 50%), followed by washing in PBS. Antigen retrieval was performed in 10 mM sodium citrate buffer (pH 6.0), which was microwaved at 100° C. for 20 minutes. After rinsed twice in PBS, sections were blocked at room temperature for 1 hour by using 10% normal goat serum, followed by incubation with anti-ki-67, anti-cleaved-caspase-3, overnight (at least 17 hours) at 4° C. Colors were developed with a DAB horseradish peroxidase color development kit.

[7] = tested on: Nur77 interaction with Bcl-2; assay: Cell-based co-immunoprecipitation of Nur77 and Bcl-2; conditions: Nur77 transfected in HeLa cells
Method: Western blotting and co-immunopreciptations (co-IP) were performed. Briefly, cells transfected with or without expression vectors for Nur77 and Bcl-2 were treated with test compounds for 2 hours. The effect of compounds on the interaction of endogenous or transfected Nur77 and Bcl-2 was analyzed by co-immunoprecipitation using appropriate antibodies. Proteins immunoprecipitated from cells by an appropriate anti-Nur77 or anti-Bcl-2 antibody were analyzed by Western blotting.

[8] = tested on: Nur77 interaction with Bcl-2; assay: Confocal microscopy colocalization of Nur77 with Bcl-2; format: cell-based
HCT116 cells = assay: PARP cleavage assay (Western blotting), HCT116; format: cell-based; conditions: 0.5 μM, 6 hours, Western blotting
Excerpt: as §4

SMILES | IC50 (HCT116 cancer cells [1]) | IC50 (HCT116 cancer cells [2]) | IC50 (MDA-MB-231 cancer cells) | PARP cleavage (MDA-MB-231 cells; 0.5 μM) | further results
COc1ccc([C+](c2c[nH]c3ccccc23)c2c[nH]c3ccccc23)cc1 [Compound 7, Bis(1H-indol-3-yl)(4-methoxyphenyl)methylium methanesulfonate] | 500 to 5000 nM | 500 to 5000 nM | – | – | –
CC1=C(/C=C/C(C)=C\C=C\C(C)=C\C(=O)O)C(C)(C)CCC1 [Compound 9-cis-RA, 9-cis-RA, reference compound] | – | – | – | – | reporter transcriptional activity (pBind-RXRa-LBD and Nur77): strongly activate; reporter transcriptional activity [3]: failed to induce the reporter activity
O=C(O)c1ccc([C+](c2c[nH]c3ccccc23)c2c[nH]c3ccccc23)cc1 [Compound 82, Bis(1H-indol-3-yl)(4-carboxyphenyl)methylium methanesulfonate] | 500 to 5000 nM | 500 to 5000 nM | – | – | –
COC(=O)c1ccc([C+](c2c[nH]c3ccccc23)c2c[nH]c3ccccc23)cc1 [Compound 8, Bis(1H-indol-3-yl)(4-(methoxycarbonyl)phenyl)methylium methanesulfonate] | < 500 nM | < 500 nM | – | – | –
FC(F)(F)c1ccc(C(c2c[nH]c3ccccc23)c2c[nH]c3ccccc23)cc1 [Compound 1a, reference compound] | – | ≥ 5000 nM | ≥ 5000 nM | no effect | PARP cleavage (HCT116 cells): no effect

Continued, in another order:

IC50 (HCT116 cancer cells [1]) | IC50 (HCT116 cancer cells [2]) | IC50 (MDA-MB-231 cancer cells) | SMILES | PARP cleavage (MDA-MB-231 cells; 0.5 μM) | further results
< 500 nM | < 500 nM | – | Clc1ccc([C+](c2c[nH]c3ccccc23)c2c[nH]c3ccccc23)cc1 [Compound 5, Bis(1H-indol-3-yl)(4-chlorophenyl)methylium methanesulfonate] | – | –
– | < 500 nM | < 500 nM | Cn1cc([C+](c2ccc(C(F)(F)F)cc2)c2c[nH]c3ccccc23)c2ccccc21 [Compound 28, (1-Methyl-1H-indol-3-yl)(1H-indol-3-yl)(4-(trifluoromethyl)phenyl)methylium methanesulfonate] | effectively induced PARP cleavage | PARP cleavage (MDA-MB-231 cells; 1 μM): effectively induce PARP cleavage; expression levels of mTOR markers p-S6 and p-4EBP1 [4]: reduced the expression levels; Myc-Nur77 in heavy membrane (HM) fraction (Nur77 [5]): accumulated in the mitochondria-enriched heavy membrane (HM) fraction; Myc-Nur77-LBD colocalization with mitochondria (Nur77 [6]): colocalized extensively with the mitochondria; expression levels of mTOR markers p-S6 and p-mTOR in tumor (PyMT mammary tumor; 3 mg/kg): markedly reduced; growth of PyMT mammary tumor (PyMT mammary tumor; 3 mg/kg daily oral, 18 days): inhibited the growth of PyMT mammary tumor; Nur77 interaction with Bcl-2 (Co-IP) [7]: interacted with Bcl-2; colocalization of transfected GFP-Nur77 (and GFP-Nur77-LBD) with Bcl-2 [8]: promoted extensive colocalization
– | < 500 nM | < 500 nM | CCCn1cc([C+](c2ccc(C(F)(F)F)cc2)c2c[nH]c3ccccc23)c2ccccc21.[Cl-] [Compound 48, (1-Propyl-1H-indol-3-yl)(1H-indol-3-yl)(4-(trifluoromethyl)phenyl)methylium chloride] | effectively induced PARP cleavage | PARP cleavage (MDA-MB-231 cells; 1 μM): effectively induce PARP cleavage; expression levels of mTOR markers p-S6 and p-4EBP1 [4]: reduced the expression levels
